In one assay the target is T1, ACTH (1-24) (Homo sapiens, UniProt P01189).
T1 construct: 10 ug synthetic ACTH (1-24) in PBS-Tween buffer; purchased Organon (West Orange, N.J.); host or cells: chemical synthesis
Put plainly: ELISA binding of ACTH (1-24) to HTCA-coated microtiter wells. Here is the method:
From 1 to 25 micrograms (ug) per well of HTCA or insulin in carbonate-bicarbonate coating buffer were added to 96 well round bottom microtiter plates and incubated at 4° C. for 8 hr. The plates were then washed with phosphate buffered saline PBS)-Tween 20 (Sigma Chemical Co., St. Louis, Mo.) buffer.
To the insulin-coated wells and to some of the HTCA-coated wells was added 10 ug synthetic ACTH (1-24) in PBS-Tween buffer. Control wells (HTCA alone) contained only PBS-Tween. The plates were incubated at room temperature for 2 hr. and then washed three times with PBS-Tween buffer. […] Following 3 washes with PBS-Tween buffer, alkaline phosphatase-conjugated goat anti-rabbit Ig G (Miles Laboratories, Elkharbt, Ind.) in PBS-Tween buffer (1:300 dilution was added. After inculation at room temperature for 1 hr, the plates were washed three times with PBS-Tween buffer and each well was treated with 200 microliters (ul) of p-nitrophenyl phosphate (1 mg/ml in carbonate-bicarbonate buffer) for 11/2 hr. at room temperature. The enzymatic reaction was then stopped by the addition of 3N NaOH (50 ul) to each well and the optical absorbance of p-nitrophenol the alkaline phosphatase product, was measured at 405 nm. The ACTH bound to the coated microtiter wells was measured by this enzyme-linked immunoabsorbent assay (EL1SA). […]
(In general: An ELISA detects its analyte on a solid surface through an enzyme-linked reagent.)

Assay [1] deals with LHRH-stimulated release of LH from pituitary cells. Description: Reverse hemolytic plaque assay, LHRH-stimulated LH release from pituitary cells. The assay is classed as cell-based, rat. Particulars: Exp. 1 (Pre); 5x10^-10 M LHRH + peptide 10^-4 M. Here is the method:
A reverse hemolytic plaque assay (Smith, et al.), Method in Enzymology, 124, p.
Plaques were analyzed by determining plaque area with an image analysis (Bioguant or Image Technology Corp. Model 300) of ^125×-500 × microscopic enlargements.

For the next assay, the target named is T2, I^125 ACTH (1-39) (Homo sapiens, UniProt P01189).
T2 construct: I^125 ACTH (1-39) (New England Nuclear Boston, Mass.); purchased New England Nuclear, Boston, Mass
T2 sequence (P01189 138-176 limits assumed): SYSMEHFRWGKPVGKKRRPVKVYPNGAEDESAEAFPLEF
Put plainly: 125I-ACTH binding to peptide-coated microtiter wells. The note with it: for Bound CPM 125I-ACTH: coated wells; for Bound CPM 125I-ACTH + excess ACTH: excess unlabelled ACTH. The procedure: Utilizing techniques described in Example 1B, polyvinyl microtiter wells were coated with 3'-5' HTCA from a 1 mM solution thereof or with BSA.
The BSA and 3'-5' HTCA coated wells were washed and then treated with one of three solutions of I^125 ACTH (1-39) (New England Nuclear Boston, Mass.) having different concentrations. After a forty five minute incubation period the solution was removed and the microtiter wells extensively washed. The microtiter wells were separated and assayed for iodine^125 content in a Beckman Gamma 5500 gamma counter. Bound ^125 I-ACTH was measured in duplicate at three concentrations in the absence and presence of excess unlabelled ACTH.
Utilizing the cRNA sequence and HTCA sequence shown in Table 8 of Example 1A, a series of peptides having a carboxy-terminal portion of the HTCA amino acid were synthesized. A pentamer (5-mer) contained the amino acid sequence: H^2 N-Phe-His-Gly-Val-Arg-COOH. A decamer (10-mer) contained the amino acid sequence: H^2 N-[…]COOH. A twenty membered peptide (20-mer) contained the amino acids sequence: H2 N-[…] Val-ArQ-COOH. Each of these peptides was used to coat microtiter wells and the coated wells tested for the ability to hind ^125 I-ACTH as described in Example 1C.
A 24-mer HTCA variant (R-HTCA) with reversed amino acid sequence directionality (amino-terminal and carboxy-terminal ends being reversed) was synthesized and had the following sequence: H2 N-[…] Arg-His-Leu-His-Val-Gly-COOH. The well-coating and ^125 I-ACTH binding procedures were performed as described in Example 1-C and the resultant data shown in Table 11.

A further assay has as its system angiotensin II receptors. Description: Binding of [125I] angiotensin II to isolated hepatic receptor. Set-up: species or system Rabbit. The note with it: concentration inhibiting binding of radiolabelled angiotensin II by 50%; 0.25 nM [125I] angiotensin II; 60 minutes 20 C. The procedure:
Inhibition of angiotensin II binding to angiotensin II receptors by complementary peptides was tested with measurement through the use of radioactive angiotensin II. Rabbit livers were homogenized, and were centrifuged in order to isolate particles sedimenting between 1,000 and 100,000 xg. Binding activity was solublized with 1% digitonin, followed by ammonium sulfate fractionation between 49 and 65% satuation followed by DEAE- cellulose chromatography at pH 7.5 using a linear gradient between 0.0 and 0.3 M KCl. The partially purified, solubilized receptor preparation bound 17 pmoles of angiotensin II per […] protein when analyzed by Scatchard analysis, indicating a purity of approximately 0.1%.
The standard assay for binding of angiotensin II to the receptor is as follows: The complete system (150 ul) contains 30 mM Tris-HCl, pH 7.5, 2.5 mM K2 EDTA, 0.2 mM PCMS, 0.25 nM [^125 I] angiotensin II ca. 100,000 cpm), 100 ug BSA, 0.25% (V/V) Brij 99 and 30 ug of partially purified receptor. […] Tubes are vortexed and then allowed to stand 10 minutes at 4° C., after which they are centrifuged and their supernatants, containing protein-bound angiotensin II, are counted.
The complete system under these conditions regularly yields about 10,000 cpm of bound radioactivity. […] Residual binding of radioactivity in this control was 35-45%. […]

Values joined by “and” are separate entries in the source; they are usually repeats but may differ in a detail not shown here. Identical values can stand only once. Where no end group is shown, it is not given here.

Consider GVHLHRAPLLAHRLAPAEVFHGVR [HTCA], for which the “specific part of ACTH-HTCA binding” value on ACTH (1-24) (wells coated 3.7 nmol/well HTCA, ELISA) is reported as “about 90%”.
In the case of `C[C@H](N)C(=O)NCC(=O)N[C@H]1CSSC[C@@H](C(=O)O)NC(=O)[C@H](CO)NC(=O)[C@H]([C@@H](C)O)NC(=O)[C@H](Cc2ccccc2)NC(=O)[C@H]([C@@H](C)O)NC(=O)[C@H](CCCCN)NC(=O)[C@H](Cc2c[nH]c3ccccc23)NC(=O)[C@H](Cc2ccccc2)NC(=O)[C@H](Cc2ccccc2)NC(=O)[C@H](CC(N)=O)NC(=O)[C@H](CCCCN)NC1=O` [Somatostatin], in assay [1], the “plaque area, percentage response to control (5x10^-10 M LHRH)” value is 103%.
As to RMRYLVKATPFGHPFFAAGHFHMG [3'-5' HTCA], the “binding of 125I-ACTH to coated peptide (in words)” value at I^125 ACTH (1-39) is “binds”. Besides, at I^125 ACTH (1-39) (1:3 dilution 125I-ACTH), the “Bound CPM 125I-ACTH” value is listed as 590 CPM. The “Bound CPM 125I-ACTH + excess ACTH” value at I^125 ACTH (1-39) (1:3 dilution 125I-ACTH) was 287 CPM and 299 CPM; on I^125 ACTH (1-39) (1:9 dilution 125I-ACTH), 191 CPM and 183 CPM; on I^125 ACTH (1-39) (conc 125I-ACTH) it was 616 CPM and 615 CPM.
In the case of “FHGVR [5-mer, H^2 N-Phe-His-Gly-Val-Arg-COOH]”, the “Bound CPM 125I-ACTH” value at I^125 ACTH (1-39) (1:3 dilution 125I-ACTH) was 3,514 CPM and 3,655 CPM; on I^125 ACTH (1-39) (1:9 dilution 125I-ACTH), 995 CPM and 993 CPM; on I^125 ACTH (1-39) (conc 125I-ACTH), 10,252 CPM and 11,388 CPM. The “Bound CPM 125I-ACTH + excess ACTH” value was 97 CPM and 95 CPM at I^125 ACTH (1-39) (1:3 dilution 125I-ACTH); 56 CPM and 52 CPM at I^125 ACTH (1-39) (1:9 dilution 125I-ACTH); 233 CPM and 245 CPM at I^125 ACTH (1-39) (conc 125I-ACTH).
Compound “GLUGLU-VAL-LYS-GLY-VAL-TYR-ILE-HIS-ALA-LEU (EEVKGVYIHAL; printed: GLUGLU-VAL-LYS-GLY-VAL-TYR-ILE-HIS-ALA-LEU) [CCA-AI]” gave an ID50 with angiotensin II receptors of 490 nM.
In the case of APAEVFHGVR [10-mer], the “Bound CPM 125I-ACTH” value at I^125 ACTH (1-39) (1:3 dilution 125I-ACTH) is 3391 CPM and 2931 CPM; on I^125 ACTH (1-39) (1:9 dilution 125I-ACTH) it was 872 CPM and 1062 CPM; at I^125 ACTH (1-39) (conc 125I-ACTH) it was 8,927 CPM and 9,072 CPM. For the same compound, the “Bound CPM 125I-ACTH + excess ACTH” value on I^125 ACTH (1-39) (1:3 dilution 125I-ACTH) is 132 CPM and 143 CPM; at I^125 ACTH (1-39) (1:9 dilution 125I-ACTH) it was 62 CPM and 58 CPM; on I^125 ACTH (1-39) (conc 125I-ACTH), 345 CPM and 350 CPM.
As for “Ac-KGVYIHAL-NH2 [CCA-AII (Ac, Am), Ac--LYS--GLY--VAL--TYR--ILE--HIS--ALA--LEU--Am]”, in the assay with angiotensin II receptors, the ID50 is on record as 3,100 nM.
Take “insulin: control coating protein [reference compound]”: the “binding of synthetic ACTH (1-24) to coated wells” value with ACTH (1-24) (10 ug ACTH (1-24), coating 1 to 25 ug/well) is reported as “nor does ACTH bind”.
For HRAPLLAHRLAPAEVFHGVR [20-mer], the “Bound CPM 125I-ACTH” value at I^125 ACTH (1-39) (1:3 dilution 125I-ACTH) was 613 CPM and 625 CPM; at I^125 ACTH (1-39) (1:9 dilution 125I-ACTH), 238 CPM and 215 CPM; at I^125 ACTH (1-39) (conc 125I-ACTH), 1978 CPM and 1768 CPM. Further, the “Bound CPM 125I-ACTH + excess ACTH” value was 113 CPM and 83 CPM at I^125 ACTH (1-39) (1:3 dilution 125I-ACTH); 39 CPM and 48 CPM at I^125 ACTH (1-39) (1:9 dilution 125I-ACTH); 229 CPM and 213 CPM at I^125 ACTH (1-39) (conc 125I-ACTH).
As to RVGHFVEAPALRHALLPARHLHVG [R-HTCA], the “binding of 125I-ACTH to coated peptide (in words)” value at I^125 ACTH (1-39) is given as “significant affinity for ACTH”. Further, the “Bound CPM 125I-ACTH” value on I^125 ACTH (1-39) (1:3 dilution 125I-ACTH) is 2,997 CPM and 3,209 CPM; on I^125 ACTH (1-39) (1:9 dilution 125I-ACTH), 1,101 CPM and 1,161 CPM; on I^125 ACTH (1-39) (conc 125I-ACTH), 10,392 CPM and 10,709 CPM. Moreover, the “Bound CPM 125I-ACTH + excess ACTH” value at I^125 ACTH (1-39) (1:3 dilution 125I-ACTH) is 140 CPM and 121 CPM; at I^125 ACTH (1-39) (1:9 dilution 125I-ACTH), 65 CPM and 69 CPM; on I^125 ACTH (1-39) (conc 125I-ACTH), 303 CPM and 325 CPM.

The values are drawn from patent publication US5212072A, “Polypeptides complementary to peptides or proteins having an amino acid sequence or nucleotide coding sequence at least partially known and methods of design therefor” (Board of Regents, The University of Texas System, priority 1991, dated 1993).
